Common to all, as to assay type: biochemical
One experiment concerns the target JNK1 (Homo sapiens, UniProt P45983). In words: JNK1 inhibition assay (spectrophotometric coupled-enzyme assay, analogous to JNK3). The note with it: read-out: JNK1 (Ki rating). The method, then: (§1) Compounds were assayed for the inhibition of JNK3 by a spectrophotometric coupled-enzyme assay. In this assay, a fixed concentration of activated JNK3 (10 nM) was incubated with various concentrations of a potential inhibitor dissolved in DMSO for 10 minutes at 30° C. in a buffer containing 0.1 M HEPES buffer, pH 7.5, containing 10 mM MgCl2, 2.5 mM phosphoenolpyruvate, 200 μM NADH, 30 μg/mL pyruvate kinase, 10 μg/mL lactate dehydrogenase, and 200 μM EGF receptor peptide. The EGF receptor peptide has the sequence […], and is a phosphoryl acceptor in the JNK3-catalyzed kinase reaction. The reaction was initiated by the addition of 10 μM ATP and the assay plate is inserted into the spectrophotometer's assay plate compartment that was maintained at 30° C. The decrease of absorbance at 340 nm was monitored as a function of time. The rate data as a function of inhibitor concentration was fitted to competitive inhibition kinetic model to determine the Ki.
(§2) The JNK1 and JNK2 assays were performed in an analogous manner.

The next experiment concerns the target activated p38 (Homo sapiens, UniProt Q16539). In words: p38 inhibition assay. The note with it: read-out: p38 (Ki rating). How it is done:
Two splice variants of human p38 kinase, CSBP1 and CSBP2, have been identified. […] The polymerase chain reaction product was cloned into the pET-15b vector (Novagen). The baculovirus transfer vector, pVL-(His)6-p38 was constructed by subcloning a XbaI-BamHI fragment of pET15b-(His)6-p38 into the complementary sites in plasmid pVL1392 (Pharmingen).
p38 was activated by combining 0.5 mg/ml p38 with 0.005 mg/ml DD-double mutant MKK6 in Buffer B+10 mM MgCl2, 2 mM ATP, 0.2 mM Na2VO4 for 30 minutes at 20° C. The activation mixture was then loaded onto a 1.0×10 cm MonoQ column (Pharmacia) and eluted with a linear 20 column volume gradient to 1.0 M NaCl in Buffer B. The activated p38 eluted after the ADP and ATP. The activated p38 peak was pooled and dialyzed against buffer B+0.2 mM Na2VO4 to remove the NaCl. The dialyzed protein was adjusted to 1.1M potassium phosphate by addition of a 4.0M stock solution and loaded onto a 1.0×10 cm HIC (Rainin Hydropore) column previously equilibrated in Buffer D (10% glycerol, 20 mM β-glycerophosphate, 2.0 mM DTT) +1.1MK2HPO4. The protein was eluted with a 20 column volume linear gradient to Buffer D+50 mM K2HPO4. The double phosphorylated p38 eluted as the main peak and was pooled for dialysis against Buffer B+0.2 mM Na2VO4 The activated p38 was stored at −70° C.
This assay is carried out in the presence of 10 mM MgCl2 and 100 mM HEPES buffer at pH 7.6. For a typical IC50 determination, a stock solution is prepared containing all of the above components and activated p38 (5 nM). The stock solution is aliquotted into vials. A fixed volume of DMSO or inhibitor in DMSO (final concentration of DMSO in reaction is 5%) is introduced to each vial, mixed and incubated for 15 minutes at room temperature. EGF receptor peptide, […], a phosphoryl acceptor in p38-catalyzed kinase reaction, is added to each vial to a final concentration of 200 μM. The kinase reaction is initiated with ATP (100 μM) and the vials are incubated at 30° C. After 30 minutes, the reactions are quenched with equal volume of 10% trifluoroacetic acid (TFA).
The phosphorylated peptide is quantified by HPLC analysis. Separation of phosphorylated peptide from the unphosphorylated peptide is achieved on a reverse phase column (Deltapak, 5 μm, C18 100D, part no. 011795) with a binary gradient of water and acteonitrile, each containing 0.1% TFA. IC50 (concentration of inhibitor yielding 50% inhibition) is determined by plotting the % activity remaining against inhibitor concentration.
This assay is carried out in the presence of 10 mM MgCl2, 25 mM β-glycerophosphate, 10% glycerol and 100 mM HEPES buffer at pH 7.6. For a typical Ki determination, the Km for ATP in the ATPase activity of activated p38 reaction is determined in the absence of inhibitor and in the presence of two concentrations of inhibitor. Ki is determined from the rate data as a function of inhibitor and ATP concentrations. A stock solution is prepared containing all of the above components and activated p38 (60 nM). The stock solution is aliquotted into vials. A fixed volume of DMSO or inhibitor in DMSO (final concentration of DMSO in reaction is 2.5%) is introduced to each vial, mixed and incubated for 15 minutes at room temperature. The reaction is initiated by adding various concentrations of ATP and then incubated at 30° C. After 30 minutes, the reactions are quenched with 50 μl of EDTA (0.1 M, final concentration), pH 8.0. The product of p38 ATPase activity, ADP, is quantified by HPLC analysis.
Separation of ADP from ATP is achieved on a reversed phase column (Supelcosil, LC-18, 3 μm, part no. 5-8985) using a binary solvent gradient of following composition: Solvent A—0.1 M phosphate buffer containing 8 mM tetrabutylammonium hydrogen sulfate (Sigma Chemical Co., catalogue no. T-7158), Solvent B—Solvent A with 30% methanol.

For the next experiment, the target named is JNK2 (Homo sapiens, UniProt P45984). The experiment can be described thus: JNK2 inhibition assay (spectrophotometric coupled-enzyme assay, analogous to JNK3). Conditions: read-out: JNK2 (Ki rating). How it is done: as §1, §2
A further experiment has as its target T1, activated JNK3 (Homo sapiens, UniProt P53779).
T1 construct: One such construct encodes amino acid residues Ser40-Glu402 of JNK3α1 and is preceded by Met and Gly residues; Met-Gly (added initiation methionine and glycine, from the NcoI cloning site) (N); made in house; host or cells: E. coli BL21 (DE3)
In words: JNK3 inhibition, spectrophotometric coupled-enzyme assay. The note with it: for Ki: activated JNK3 10 nM, 10 μM ATP, 30° C., read-out: JNK3 (Ki rating); for p38/JNK3: ratio of p38 to JNK3 activity as a measure of selectivity.
Description: A BLAST search of the EST database using the published JNK3α1 cDNA as a query identified an EST clone (#632588) that contained the entire coding sequence for human JNK3α1. Polymerase chain reactions (PCR) using pfu polymerase (Strategene) were used to introduce restriction sites into the CDNA for cloning into the pET-15B expression vector at the NcoI and BamHI sites. The protein was expressed in E. coli. Due to the poor solubility of the expressed full-length protein (Met 1-Gln 422), an N-terminally truncated protein starting at Ser residue at position 40 (Ser 40) was produced. This truncation corresponds to Ser 2 of JNK1 and JNK2 proteins, and is preceded by a methionine (initiation) and a glycine residue. The glycine residue was added in order to introduce an NcoI site for cloning into the expression vector. In addition, systematic C-terminal truncations were performed by PCR to identify a construct that give rise to diffraction-quality crystals. One such construct encodes amino acid residues Ser40-Glu402 of JNK3α1 and is preceded by Met and Gly residues.
Five mg of JNK3 was diluted to 0.5 mg/ml in 50 mM HEPES buffer, pH 7.5, containing 100 mM NaCl, 5 mM DTT, 20 mM MgCl2 and 1 mM ATP. GST-MKK7(DD) was added at a molar ratio of 1:2.5 GST-MKK7:JNK3. After incubation for 30 minutes at 25° C., the reaction mixture was concentrated 5-fold by ultrafiltration in a Centriprep-30 (Amicon, Beverly, Mass.), diluted to 10 ml and an additional 1 mM ATP added. This procedure was repeated three times to remove ADP and replenish ATP. The final addition of ATP was 5 mM and the mixture incubated overnight at 4° C.
The activated JNK3/GST-MKK7(DD) reaction mixture was exchanged into 50 mM HEPES buffer, pH 7.5, containing 5 mM DTT and 5% glycerol (w/v) by dialysis or ultrafiltration. The reaction mixture was adjusted to 1.1 M potassium phosphate, pH 7.5, and purified by hydrophobic interaction chromatography (at 25° C.) using a Rainin Hydropore column. […] Activated JNK3 (i.e. doubly phosphorylated JNK3) was stored at −70° C. at 0.25-1 mg/ml.
as §1

JNK2, sequence (P45984 whole entry, species assumed): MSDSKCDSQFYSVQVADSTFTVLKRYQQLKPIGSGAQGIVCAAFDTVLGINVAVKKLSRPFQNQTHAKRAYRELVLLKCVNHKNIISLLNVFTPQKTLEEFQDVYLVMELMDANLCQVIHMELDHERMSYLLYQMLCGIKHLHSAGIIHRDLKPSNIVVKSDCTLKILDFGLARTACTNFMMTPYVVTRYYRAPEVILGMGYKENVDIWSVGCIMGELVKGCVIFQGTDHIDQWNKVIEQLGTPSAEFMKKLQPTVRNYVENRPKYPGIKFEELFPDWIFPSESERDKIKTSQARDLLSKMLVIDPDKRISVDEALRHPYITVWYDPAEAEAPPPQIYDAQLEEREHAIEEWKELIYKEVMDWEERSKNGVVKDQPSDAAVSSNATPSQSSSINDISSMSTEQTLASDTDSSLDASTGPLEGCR
activated p38, sequence (Q16539 whole entry, the tested form may be a part, canonical isoform): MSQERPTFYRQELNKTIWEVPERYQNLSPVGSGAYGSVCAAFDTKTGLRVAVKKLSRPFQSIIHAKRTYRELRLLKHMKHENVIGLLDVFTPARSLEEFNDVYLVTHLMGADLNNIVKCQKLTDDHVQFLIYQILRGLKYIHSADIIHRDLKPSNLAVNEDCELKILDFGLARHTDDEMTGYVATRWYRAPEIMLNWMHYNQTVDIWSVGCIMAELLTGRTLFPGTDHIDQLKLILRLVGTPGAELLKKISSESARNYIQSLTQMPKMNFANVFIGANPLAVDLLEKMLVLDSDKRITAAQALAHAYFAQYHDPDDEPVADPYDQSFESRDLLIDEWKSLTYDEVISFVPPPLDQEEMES
JNK1, sequence (P45983 whole entry, species assumed): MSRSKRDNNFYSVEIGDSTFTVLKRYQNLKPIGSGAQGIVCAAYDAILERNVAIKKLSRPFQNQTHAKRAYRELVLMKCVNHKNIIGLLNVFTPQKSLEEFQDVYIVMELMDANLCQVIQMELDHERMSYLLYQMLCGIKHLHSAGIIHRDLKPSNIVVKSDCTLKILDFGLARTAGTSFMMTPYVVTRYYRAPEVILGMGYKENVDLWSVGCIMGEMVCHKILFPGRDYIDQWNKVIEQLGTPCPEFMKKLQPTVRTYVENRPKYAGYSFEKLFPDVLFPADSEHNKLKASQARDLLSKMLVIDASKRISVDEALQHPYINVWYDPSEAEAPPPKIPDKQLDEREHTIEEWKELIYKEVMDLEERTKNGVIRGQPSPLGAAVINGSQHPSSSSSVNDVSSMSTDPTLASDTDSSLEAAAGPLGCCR
T1 sequence (P53779 40-402): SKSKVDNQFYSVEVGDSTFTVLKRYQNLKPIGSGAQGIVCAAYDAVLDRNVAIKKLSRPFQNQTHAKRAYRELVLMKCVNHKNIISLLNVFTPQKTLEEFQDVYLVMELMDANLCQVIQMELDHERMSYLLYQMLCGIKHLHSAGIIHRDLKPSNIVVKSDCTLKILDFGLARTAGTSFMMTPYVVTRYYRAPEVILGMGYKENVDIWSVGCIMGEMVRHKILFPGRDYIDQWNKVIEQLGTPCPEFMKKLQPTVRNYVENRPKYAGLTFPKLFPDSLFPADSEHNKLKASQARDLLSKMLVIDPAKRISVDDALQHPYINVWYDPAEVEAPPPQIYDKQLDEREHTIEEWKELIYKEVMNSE

Turning to `c1ccc(Cn2cc(-c3ccnc(NC4CCCCC4)n3)cn2)cc1` [II-65], the Ki on JNK1 was under 2000 nM; on activated p38, over 10 µM; at JNK2, under 2000 nM; at activated JNK3, under 2000 nM. At activated JNK3, the p38/JNK3 is over 10.
In the case of `c1ccc(-n2cc(-c3ccnc(NC4CCCCC4)n3)cn2)cc1` [II-67], the inhibition constant (Ki) is under 2000 nM at JNK1, over 10 µM on activated p38, under 2000 nM at JNK2 and under 2000 nM at activated JNK3. In addition, the p38/JNK3 on activated JNK3 is on record as over 10.
Take `COc1ccc(-n2cc(-c3ccnc(NC4CCCCC4)n3)cn2)cc1` [II-70]: the inhibition constant (Ki) was 2000 to 10000 nM on JNK1, over 10 µM on activated p38, 2000 to 10000 nM at JNK2 and under 2000 nM at activated JNK3. For the same molecule, at activated JNK3, the p38/JNK3 entry is “≧10”.
Consider `Clc1ccc(Cl)c(-n2cc(-c3ccnc(NC4CCCCC4)n3)cn2)c1` [II-71], for which the Ki on JNK1 is under 2000 nM; at activated p38, over 10 µM; on JNK2, under 2000 nM; on activated JNK3, under 2000 nM. Besides, the p38/JNK3 on activated JNK3 is reported as over 10.
On to `Fc1ccc(-n2cc(-c3ccnc(NC4CCCCC4)n3)cn2)c(F)c1` [II-72, Cyclohexyl-{4-[l-(2,4-difluoro-phenyl)-1H-pyrazol-4-yl]-pyrimidin-2-yl}-amine], for which the inhibition constant (Ki) on JNK1 was under 2000 nM; on activated p38, over 10 µM; on JNK2 it was under 2000 nM; at activated JNK3, under 2000 nM. For the same molecule, the p38/JNK3 on activated JNK3 is over 10.
Consider `Cc1c(-c2ccnc(Nc3ccc(F)cc3)n2)cnn1-c1ccccc1` [II-100], for which the inhibition constant Ki on JNK1 was under 2000 nM; at activated p38 it was over 10 µM; at JNK2, under 2000 nM; on activated JNK3, under 2000 nM. For the same molecule, the p38/JNK3 at activated JNK3 is over 10.
As to `Cc1c(-c2ccnc(Nc3ccc(Cl)cc3)n2)cnn1-c1ccccc1` [II-101], the Ki was under 2000 nM at JNK1, over 10 µM on activated p38, under 2000 nM on JNK2 and under 2000 nM at activated JNK3. Also, at activated JNK3, the p38/JNK3 was over 10.
Take `Cc1c(-c2ccnc(Nc3ccc([N+](=O)[O-])cc3)n2)cnn1-c1ccccc1` [II-102]: the Ki on JNK1 is under 2000 nM; on activated p38 it was over 10 µM; on JNK2 it was under 2000 nM; at activated JNK3, under 2000 nM. The p38/JNK3 at activated JNK3 was over 10.
